The text below walks through data of US20090124672A1 (priority 2007, published 2009).

The target in the first experiment is T1, hALDH2 (recombinant human mitochondria ALDH) (Homo sapiens, UniProt P05091).
T1 sequence (P05091 18-517): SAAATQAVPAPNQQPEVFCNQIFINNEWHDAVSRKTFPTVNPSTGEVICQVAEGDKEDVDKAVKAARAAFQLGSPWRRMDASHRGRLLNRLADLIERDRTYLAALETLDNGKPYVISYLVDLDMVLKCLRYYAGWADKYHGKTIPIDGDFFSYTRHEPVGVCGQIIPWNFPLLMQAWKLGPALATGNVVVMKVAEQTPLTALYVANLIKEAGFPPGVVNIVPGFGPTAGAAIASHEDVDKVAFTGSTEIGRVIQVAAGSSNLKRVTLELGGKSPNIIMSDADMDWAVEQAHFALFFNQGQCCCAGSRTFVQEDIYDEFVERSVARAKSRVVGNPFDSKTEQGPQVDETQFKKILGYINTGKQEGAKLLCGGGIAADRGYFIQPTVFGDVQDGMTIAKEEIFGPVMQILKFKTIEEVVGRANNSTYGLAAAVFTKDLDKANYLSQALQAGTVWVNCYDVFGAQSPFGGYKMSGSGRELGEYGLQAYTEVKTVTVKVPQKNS
Description: ALDH2 inhibition assay (NADH formation, formaldehyde substrate). Type of experiment: biochemical.
Settings: not given
Here is the method: ALDH2 inhibition assays were performed in sodium phosphate buffer (50 mM, pH 7.4) containing 1.2 mM NAD^+ (Sigma N7004), 1 nM hALDH2 (recombinant human mitochondria ALDH), various concentrations of test compounds (from 0.03 nM to 1000 nM), and 0.15 mM freshly prepared formaldehyde solution (Ladd Research 20295). Reactions were initiated by the addition of formaldehyde and rates were recorded by monitoring NADH formation in a temperature controlled (25° C.) FluoroMax-2 Fluorimeter with excitation and emission wavelengths set at 340 and 460 nm, respectively. […] Normally, IC50 values were determined by fitting concentration-inhibition data to sigmoidal dose-response curves with two-floating parameters: IC50 and Hill coefficient. When tight binding situation was suspected, apparent Ki values were estimated by fitting dose-response data to Morrison's equation [Methods in Enzymology 63, 437-467, 1979].
As for `O=c1c(-c2ccc(O)cc2)coc2cc(OCc3noc(-c4cc(C(F)(F)F)cc(C(F)(F)F)c4)n3)ccc12` [PT-39, 7-({5-[3,5-bis(trifluoromethyl)phenyl](1,2,4-oxadiazol-3-yl)}methoxy)-3-(4-hydroxyphenyl)chromen-4-one], the IC50 stood at 130 nM. The same measure, in the same setting: as for `O=c1c(-c2ccc(O)cc2)coc2cc(OCc3nc(-c4cccnc4)no3)ccc12` [PT-114, 3-(4-hydroxyphenyl)-7-[(3-(3-pyridyl)(1,2,4-oxadiazol-5-yl))methoxy]chromen-4-one], the figure is 32 nM; as for `O=c1c(-c2ccc(OCc3ccccn3)cc2)coc2cc(OCc3ccccn3)ccc12` [PT-93, 7-(2-pyridylmethoxy)-3-[4-(2-pyridylmethoxy)phenyl]chromen-4-one], 17 nM.

In the case of `O=c1c(-c2ccc(O)cc2)coc2cc(OCc3nnc(-c4ccccc4Cl)o3)ccc12` [PT-80, 7-{[5-(2-chlorophenyl)(1,3,4-oxadiazol-2-yl)]methoxy}-3-(4-hydroxyphenyl)chromen-4-one], the IC50 worked out at 4 nM.

As to `O=c1c(-c2ccc(O)cc2)coc2cc(OCc3noc(-c4ccc(F)c(C(F)(F)F)c4)n3)ccc12` [PT-30, 7-({5-[4-fluoro-3-(trifluoromethyl)phenyl](1,2,4-oxadiazol-3-yl)}methoxy)-3-(4-hydroxyphenyl)chromen-4-one], the concentration for half-maximal inhibition (IC50) was determined as 100 nM. Still for that read-out and setting: then `O=c1c(-c2ccc(O)cc2)coc2cc(OCc3coc(-c4cccc(C(F)(F)F)c4)n3)ccc12` [PT-12, 3-(4-hydroxyphenyl)-7-({2-[3-(trifluoromethyl)phenyl](1,3-oxazol-4-yl)}methoxy)chromen-4-one], with 3 nM. Still for that read-out and setting: then “7-{2-[4-(3-chlorophenyl)piperazinyl]ethoxy}-3-(4-hydroxyphenyl)chromen-4-one [PT-123]”, with 11 nM; and `O=c1c(-c2ccc(O)cc2)coc2cc(OCc3noc(-c4cc(C(F)(F)F)ccc4C(F)(F)F)n3)ccc12` [PT-31, 7-({5-[2,5-bis(trifluoromethyl)phenyl](1,2,4-oxadiazol-3-yl)}methoxy)-3-(4-hydroxyphenyl)chromen-4-one], with 20 nM. On the same count and under the same terms, as for `O=c1c(-c2ccc(O)cc2)coc2cc(OCc3nnc(-c4cccnc4)o3)ccc12` [PT-110, 3-(4-hydroxyphenyl)-7-[(5-(3-pyridyl)(1,3,4-oxadiazol-2-yl))methoxy]chromen-4-one], the figure is 7 nM; as for `O=c1c(-c2ccc(O)cc2)coc2cc(OCc3noc(-c4cccc(F)c4)n3)ccc12` [PT-42, 7-{[5-(3-fluorophenyl)(1,2,4-oxadiazol-3-yl)]methoxy}-3-(4-hydroxyphenyl)chromen-4-one], 62 nM; as for `CS(=O)(=O)Nc1ccc(-c2coc3cc(OCc4noc(-c5ccc(F)cc5)n4)ccc3c2=O)cc1` [PT-48, 7-{[5-(4-fluorophenyl)(1,2,4-oxadiazol-3-yl)]methoxy}-3-{4-[(methylsulfonyl)amino]-phenyl}chromen-4-one], 140 nM. As to `O=C(COc1ccc2c(=O)c(-c3ccc(O)cc3)coc2c1)c1ccccc1C(F)(F)F` [PT-85, 3-(4-hydroxyphenyl)-7-{2-oxo-2-[2-(trifluoromethyl)phenyl]ethoxy}chromen-4-one], the IC50 amounted to 70 nM. On to `O=C(O)c1ccc(COc2ccc3c(=O)c(-c4ccc(O)cc4)coc3c2)cc1` [PT-36, 4-{[3-(4-hydroxyphenyl)-4-oxochromen-7-yloxy]methyl}benzoic acid], for which the IC50 turned out to be 170 nM. The same measure, in the same setting: then `O=c1c(-c2ccc(O)cc2)coc2cc(OCc3cncc(C(F)(F)F)c3)ccc12` [PT-94, 3-(4-hydroxyphenyl)-7-{[5-(trifluoromethyl)(3-pyridyl)]methoxy}chromen-4-one], with 20 nM; and `O=c1c(-c2ccc(O)cc2)coc2cc(OCc3noc(-c4ccccc4)n3)ccc12` [PT-24, 3-(4-hydroxyphenyl)-7-[(5-phenyl(1,2,4-oxadiazol-3-yl))methoxy]chromen-4-one], with 160 nM. Still for that read-out and setting: as for `O=C(O)c1cccc(-c2nc(COc3ccc4c(=O)c(-c5ccc(O)cc5)coc4c3)no2)c1` [PT-41, 3-(3-{[3-(4-hydroxyphenyl)-4-oxochromen-7-yloxy]methyl}-1,2,4-oxadiazol-5-yl)benzoic acid], the figure is 10 nM; as for `O=C(O)c1coc(COc2ccc3c(=O)c(-c4ccc(O)cc4)coc3c2)n1` [PT-102, 2-{[3-(4-hydroxyphenyl)-4-oxochromen-7-yloxy]methyl}-1,3-oxazole-4-carboxylic acid], 16 nM.

As for “7-{2-[4-(4-chlorophenyl)pyrazolyl]ethoxy}-3-(4-hydroxyphenyl)chromen-4-one [PT-51]”, the IC50 was 110 nM.

As to `O=c1c(-c2ccc(O)cc2)coc2cc(OCc3coc(-c4ccc(Cl)cc4)n3)ccc12` [PT-17, 7-{[2-(4-chlorophenyl)(1,3-oxazol-4-yl)]methoxy}-3-(4-hydroxyphenyl)chromen-4-one], the IC50 was 573 nM.

The same experiment, now with this note: at 1 μM.
Turning to `O=c1c(-c2cn[nH]c2)coc2cc(OCc3noc(-c4cc(F)cc(C(F)(F)F)c4)n3)ccc12` [PT-75, 7-({5-[3-fluoro-5-(trifluoromethyl)phenyl](1,2,4-oxadiazol-3-yl)}methoxy)-3-(5-hydropyrazol-4-yl)chromen-4-one], the “hALDH2 inhibition (IC50 hALDH2 column)” value turned out to be 14%.

In the case of `O=c1c(-c2ccc(O)cc2)coc2cc(OCc3cc(-c4ccc(Cl)cc4)on3)ccc12` [PT-95, 7-{[5-(4-chlorophenyl)isoxazol-3-yl]methoxy}-3-(4-hydroxyphenyl)chromen-4-one], the “hALDH2 inhibition (IC50 hALDH2 column)” value amounted to 57%.

Still in this experiment, the particulars now being: at 1 μM; read-out: hALDH2 inhibition (IC50 hALDH2 column).
As to `N#Cc1cc(-c2coc3cc(OCc4noc(-c5cc(F)cc(C(F)(F)F)c5)n4)ccc3c2=O)ccc1F` [PT-9, 2-fluoro-5-[7-({5-[5-fluoro-3-(trifluoromethyl)phenyl](1,2,4-oxadiazol-3-yl)}methoxy)-4-oxochromen-3-yl]benzenecarbonitrile], the inhibition at 1 µM came to 24%. On the same count and under the same terms, then `NC(=O)c1ccc(-c2coc3cc(OCc4noc(-c5cc(F)cc(C(F)(F)F)c5)n4)ccc3c2=O)cc1` [PT-72, 4-[7-({5-[3-fluoro-5-(trifluoromethyl)phenyl](1,2,4-oxadiazol-3-yl)}methoxy)-4-oxochromen-3-yl]benzamide], with 14%; and `CO/N=C(\N)c1ccc(-c2coc3cc(OCc4cccc(C(=O)OC)c4)ccc3c2=O)cc1` [PT-50, methyl 3-({3-[4-((1Z)-1-amino-2-methoxy-2-azavinyl)phenyl]-4-oxochromen-7-yloxy}methyl)benzoate], with 47%; and `COC(=O)c1cccc(COc2ccc3c(=O)c(-c4ccc(OC)nc4)coc3c2)c1` [PT-6, methyl 3-{[3-(6-methoxy(3-pyridyl))-4-oxochromen-7-yloxy]methyl}benzoate], with 16%. The same measure, in the same setting: then `O=c1c(-c2ccc(O)cc2)coc2cc(OCc3cc(-c4ccc(Cl)cc4)on3)ccc12` [PT-95, 7-{[5-(4-chlorophenyl)isoxazol-3-yl]methoxy}-3-(4-hydroxyphenyl)chromen-4-one], with 57%; and `CCOC(=O)COc1ccc(-c2coc3cc(OCC(=O)OCC)ccc3c2=O)cc1` [PT-10, ethyl 2-(3-{4-[(ethoxycarbonyl)methoxy]phenyl}-4-oxochromen-7-yloxy)acetate], with 60%; and `COC(=O)c1cccc(COc2ccc3c(=O)c(-c4ccc(CO)cc4)coc3c2)c1` [PT-7, methyl 3-({3-[4-(hydroxymethyl)phenyl]-4-oxochromen-7-yloxy}methyl)benzoate], with 75%.

The IC50 is the concentration at which inhibition is half-maximal. As usually defined, the inhibition is the drop in the measured response relative to a control, in per cent.
